How the values were obtained:
[1] = Reversed-phase TLC on RP-2 silanized plates (Rf); format: physicochemical; conditions: silica gel 60 RP-2 F254 silanized; water:methanol:acetonitrile 60:20:20, ammonium acetate pH 7.4
Description: (§1) The purity of the isolated substances was checked by TLC chromatography and densitometric scanning.
(§2) APIs were subjected to chromatographic in column (HPLC) and thin layer (TLC) formats. TLC chromatography was carried out on 20 cm × 20 cm glass plates by Merck, covered with silica gel and the addition of a fluorescent indicator. Merck TLC silica gel 60 F254 was used for the normal phase (NP). In the reverse phase (RP), RP-2 silanized plates were used (Merck TLC Silica gel 60 RP-2 F254, silanized). The mobile phase was buffered with ammonium acetate to pH 7.4 (LACH-NER, ammonium acetate).
(§3) Plates, after developing the chromatograms, were scanned using a densitometer (Desaga CD 60) with an analytical wavelength selected individually for drugs. The values of Rf (molecular descriptors: NP, RP) were determined.

[2] = HPLC on IAM (immobilized artificial membrane) column, retention factor; format: physicochemical; conditions: IAM.PC.DD.2 column; for k(IAM) retention factor: 10 mM phosphate buffer pH 7.4:acetonitrile 80:20; for logkIAM: logarithm of retention factor, phosphate buffer pH 7.4:acetonitrile 80:20
[3] = Normal-phase TLC on silica gel 60 F254 (Rf); format: physicochemical; conditions: water:methanol:acetonitrile 60:20:20, ammonium acetate pH 7.4
Description: as §1, §2, §3

[4] = cited from earlier work
[5] = entering the CNS / not entering the CNS; ref Drugbank [36]; cited from earlier work
[6] = plasma protein binding, given as fraction; ref Drugbank; cited from earlier work

Row | SMILES | RP (Rf from RP-2 TLC plate) [1] | k(IAM) retention factor [2] | logkIAM [2] | NP (Rf from NP TLC plate) [3] | Kp,uu,brain (unbound brain-to-plasma drug partition coefficient) [4] | CNS+/- [5] | PB (protein binding) [6]
1 | OCCOCCN1CCN(C2=Nc3ccccc3Sc3ccccc32)CC1 [quetiapine] | 0.73 | 17.02 | 1.23 | 0.68 | 1.26 | 1 | 0.83
2 | CN1CCN2c3ccccc3Cc3ccccc3C2C1 (stereo not shown) [mianserin] | 0.55 | 21.72 | 1.34 | 0.54 | 3.22 | 1 | 0.9
3 | O=C1NC(=O)C(c2ccccc2)(c2ccccc2)N1 [phenytoin] | 0.87 | 1.78 | 0.25 | 0.97 | 0.66 | 1 | 0.9
4 | O=c1n(CCCN2CCN(c3cccc(Cl)c3)CC2)nc2ccccn12 [trazodone] | 0.76 | 9.30 | 0.97 | 0.71 | 1.54 | 1 | 0.92
5 | CC(=O)Nc1ccc(O)cc1 [paracetamol] | 0.92 | 0.32 | -0.49 | 0.93 | 0.73 | 1 | 0.25
6 | CCCN1C[C@H](CSC)C[C@@H]2c3cccc4[nH]cc(c34)C[C@H]21 [pergolide] | 0.55 |  |  | 0.48 | 3.19 | 1 | 0.9

From paper PMC10384010, “Chromatographic Data in Statistical Analysis of BBB Permeability Indices” (Membranes, 2023)
